This assay relates to grass, including crabgrass and other weeds. To be noted: 100% of sodium bicarbonate.

For `O=C([O-])O.[Na+]` [sodium bicarbonate], the killing of grass entry is “would kill grass, including crabgrass and other weeds”.

Source of the values: patent US20040102320A1, “NATURAL HERBICIDE FOR WEED REMOVAL” (priority 2002, published 2004).
